Results on three compounds are retold here after ChEMBL document CHEMBL1201862, “PubChem BioAssay data set” (2004).

Activity calls are given as the source filed them. Where only a bound is given, the exact number is not on record here.

What all share (assay type): functional
Assay [1] concerns the target T1, Caspase-3 (Homo sapiens, UniProt P42574).
T1 sequence (P42574 whole entry): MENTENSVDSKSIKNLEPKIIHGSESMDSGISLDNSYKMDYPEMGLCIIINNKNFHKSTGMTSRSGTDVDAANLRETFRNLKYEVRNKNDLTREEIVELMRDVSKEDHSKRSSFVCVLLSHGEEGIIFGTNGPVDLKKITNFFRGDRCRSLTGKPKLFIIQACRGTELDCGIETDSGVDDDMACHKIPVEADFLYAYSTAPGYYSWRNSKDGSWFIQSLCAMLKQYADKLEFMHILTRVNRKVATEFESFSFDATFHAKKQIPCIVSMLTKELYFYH

Assay [2] addresses T2, Sentrin-specific protease 7 (Homo sapiens, UniProt Q9BQF6).
T2 sequence (Q9BQF6 whole entry): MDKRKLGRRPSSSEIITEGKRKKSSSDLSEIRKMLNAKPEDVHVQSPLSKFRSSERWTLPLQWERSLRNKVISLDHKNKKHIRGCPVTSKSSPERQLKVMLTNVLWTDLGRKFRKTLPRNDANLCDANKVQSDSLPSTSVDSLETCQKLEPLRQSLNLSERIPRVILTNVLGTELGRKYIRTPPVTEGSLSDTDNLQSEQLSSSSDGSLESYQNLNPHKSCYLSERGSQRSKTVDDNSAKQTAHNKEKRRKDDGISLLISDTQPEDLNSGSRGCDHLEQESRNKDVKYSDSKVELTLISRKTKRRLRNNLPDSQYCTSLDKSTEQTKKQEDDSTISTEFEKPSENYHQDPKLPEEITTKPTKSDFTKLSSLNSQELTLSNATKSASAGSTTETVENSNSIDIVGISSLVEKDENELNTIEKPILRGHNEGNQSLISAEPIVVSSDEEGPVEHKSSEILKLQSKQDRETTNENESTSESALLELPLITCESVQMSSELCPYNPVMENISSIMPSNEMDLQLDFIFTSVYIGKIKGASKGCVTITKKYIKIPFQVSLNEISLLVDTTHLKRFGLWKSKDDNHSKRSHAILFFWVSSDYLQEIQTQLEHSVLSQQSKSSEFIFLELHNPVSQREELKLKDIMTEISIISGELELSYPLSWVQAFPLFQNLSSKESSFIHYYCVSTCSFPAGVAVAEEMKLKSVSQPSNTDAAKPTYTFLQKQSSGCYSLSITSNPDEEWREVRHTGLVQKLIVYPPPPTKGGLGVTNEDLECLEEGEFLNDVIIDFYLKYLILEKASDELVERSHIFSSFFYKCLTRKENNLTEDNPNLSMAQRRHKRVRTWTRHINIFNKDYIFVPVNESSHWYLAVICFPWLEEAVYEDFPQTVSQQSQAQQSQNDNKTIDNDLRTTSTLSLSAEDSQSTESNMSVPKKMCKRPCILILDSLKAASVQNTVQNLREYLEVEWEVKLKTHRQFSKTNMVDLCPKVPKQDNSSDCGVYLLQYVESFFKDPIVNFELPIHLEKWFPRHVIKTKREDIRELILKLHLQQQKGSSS

Assay [3] deals with T3, Sentrin-specific protease 6 (Homo sapiens, UniProt Q9GZR1).
T3 sequence (Q9GZR1 whole entry): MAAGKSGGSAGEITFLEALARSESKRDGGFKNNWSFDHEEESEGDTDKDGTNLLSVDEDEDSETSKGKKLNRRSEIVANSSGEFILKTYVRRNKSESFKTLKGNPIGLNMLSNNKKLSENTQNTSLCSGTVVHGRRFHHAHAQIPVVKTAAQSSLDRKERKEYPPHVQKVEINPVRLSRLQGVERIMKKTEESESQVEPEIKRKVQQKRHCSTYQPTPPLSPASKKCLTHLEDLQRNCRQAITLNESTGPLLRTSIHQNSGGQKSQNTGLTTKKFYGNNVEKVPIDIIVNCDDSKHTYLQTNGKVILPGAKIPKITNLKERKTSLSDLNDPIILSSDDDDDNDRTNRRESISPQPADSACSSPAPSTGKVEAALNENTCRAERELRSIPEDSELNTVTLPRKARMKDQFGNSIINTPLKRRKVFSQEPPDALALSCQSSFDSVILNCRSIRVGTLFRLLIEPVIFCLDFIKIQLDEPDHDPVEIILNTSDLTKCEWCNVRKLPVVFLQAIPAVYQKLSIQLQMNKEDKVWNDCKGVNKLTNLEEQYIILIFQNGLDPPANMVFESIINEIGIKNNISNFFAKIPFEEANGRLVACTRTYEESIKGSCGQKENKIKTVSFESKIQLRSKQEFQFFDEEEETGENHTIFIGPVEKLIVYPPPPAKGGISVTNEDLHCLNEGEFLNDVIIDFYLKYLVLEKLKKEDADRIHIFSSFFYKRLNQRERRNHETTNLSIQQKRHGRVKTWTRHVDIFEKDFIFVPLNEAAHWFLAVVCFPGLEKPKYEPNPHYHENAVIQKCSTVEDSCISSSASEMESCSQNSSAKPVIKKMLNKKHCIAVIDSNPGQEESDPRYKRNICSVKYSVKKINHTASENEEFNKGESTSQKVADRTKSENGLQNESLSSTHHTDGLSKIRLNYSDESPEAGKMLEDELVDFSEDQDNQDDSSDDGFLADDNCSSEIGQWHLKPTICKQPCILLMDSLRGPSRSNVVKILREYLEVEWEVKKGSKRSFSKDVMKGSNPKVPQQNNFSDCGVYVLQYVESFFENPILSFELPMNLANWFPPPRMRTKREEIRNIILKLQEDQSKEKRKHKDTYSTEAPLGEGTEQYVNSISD

The target of assay [4] is T4, Sentrin-specific protease 8 (Homo sapiens, UniProt Q96LD8).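 Also: luminescence read-out of SENP8 inhibition, dose-response confirmation following an ultra-high-throughput screen.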
T4 sequence (Q96LD8 whole entry): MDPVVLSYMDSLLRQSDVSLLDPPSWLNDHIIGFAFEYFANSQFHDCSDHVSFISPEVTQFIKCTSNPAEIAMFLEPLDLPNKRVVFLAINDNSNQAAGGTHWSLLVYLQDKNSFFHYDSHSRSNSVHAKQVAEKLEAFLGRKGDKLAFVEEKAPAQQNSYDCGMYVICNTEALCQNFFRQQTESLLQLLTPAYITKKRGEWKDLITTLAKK

In assay [5] the target is T1, Caspase-3. Put plainly: SAR Analysis of small molecule inhibitors of Sentrin-specific proteases (SENPs) using a Caspase-3 Selectivity assay. [Related pubchem assays (depositor defined):AID2540, AID2599, AID434973, AID489001].
The target of assay [6] is T3, Sentrin-specific protease 6. Put plainly: SAR Analysis of small molecule inhibitors of Sentrin-specific protease 6 (SENP6) using a Luminescent assay. [Related pubchem assays (depositor defined):AID2582, AID2599].
For assay [7], the target named is T2, Sentrin-specific protease 7. Put plainly: SENP7 protease inhibitors, SAR follow-up, biochemical, luminescence (AID 504497).
Another assay concerns CHO-K1. The experiment in a line: Counterscreen for antagonists of the orexin 1 receptor (OX1R; HCRTR1): Homogeneous time resolved fluorescence (HTRF)-based cell-based dose response assay to identify antagonists of the parental CHO-K1 cell line. [Related pubchem assays (depositor defined):AID434989, AID435008, AID463079, AID485270, AID492963, AID492964, AID492965, AID493232, AID504699, AID504701]. To be noted: Cricetulus griseus.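 Also: potency for inhibition of ATP-stimulated IP1 production as antagonists.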

The nature of assay [8]: Counterscreen for antagonists of the orexin 1 receptor (OX1R; HCRTR1): Fluorescence-based cell-based high throughput dose response assay to identify antagonists of the parental CHO cell line. [Related pubchem assays (depositor defined):AID434989, AID435008, AID463079, AID485270, AID492963, AID492964, AID492965, AID493232, AID504699, AID504701].
The target of assay [9] is T5, Orexin/Hypocretin receptor type 1 (Homo sapiens, UniProt O43613).
T5 sequence (O43613 whole entry): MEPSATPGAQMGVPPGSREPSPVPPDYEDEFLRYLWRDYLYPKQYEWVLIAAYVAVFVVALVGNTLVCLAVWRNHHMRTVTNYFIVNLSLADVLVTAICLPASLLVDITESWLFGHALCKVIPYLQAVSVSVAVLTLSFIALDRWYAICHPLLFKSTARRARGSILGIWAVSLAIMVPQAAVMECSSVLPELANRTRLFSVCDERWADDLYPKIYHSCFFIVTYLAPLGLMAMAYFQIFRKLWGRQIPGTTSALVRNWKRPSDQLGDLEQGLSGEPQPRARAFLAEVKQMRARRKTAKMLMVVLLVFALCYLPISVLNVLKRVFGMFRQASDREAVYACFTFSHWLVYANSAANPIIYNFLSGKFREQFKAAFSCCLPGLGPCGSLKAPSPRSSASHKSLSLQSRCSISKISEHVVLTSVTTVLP
Put plainly: Homogeneous Time Resolved Fluorescence (HTRF)-based cell-based high throughput dose response assay for antagonists of the orexin 1 receptor (OX1R; HCRTR1). [Related pubchem assays (depositor defined):AID434989, AID435008, AID463079, AID485270, AID492963, AID492964, AID492965, AID493232, AID504717, AID504718]. For orientation: TR-FRET usually uses a lanthanide donor and a delayed reading to cut background.

The target of assay [10] is T5, Orexin/Hypocretin receptor type 1. The experiment in a line: Fluorescence-based cell-based high throughput dose response assay for antagonists of the orexin 1 receptor (OX1R; HCRTR1). [Related pubchem assays (depositor defined):AID434989, AID435008, AID463079, AID485270, AID492963, AID492964, AID492965, AID493232, AID504717, AID504718].
Assay [11] deals with T6, Orexin receptor type 2 (Homo sapiens, UniProt O43614).
T6 sequence (O43614 whole entry): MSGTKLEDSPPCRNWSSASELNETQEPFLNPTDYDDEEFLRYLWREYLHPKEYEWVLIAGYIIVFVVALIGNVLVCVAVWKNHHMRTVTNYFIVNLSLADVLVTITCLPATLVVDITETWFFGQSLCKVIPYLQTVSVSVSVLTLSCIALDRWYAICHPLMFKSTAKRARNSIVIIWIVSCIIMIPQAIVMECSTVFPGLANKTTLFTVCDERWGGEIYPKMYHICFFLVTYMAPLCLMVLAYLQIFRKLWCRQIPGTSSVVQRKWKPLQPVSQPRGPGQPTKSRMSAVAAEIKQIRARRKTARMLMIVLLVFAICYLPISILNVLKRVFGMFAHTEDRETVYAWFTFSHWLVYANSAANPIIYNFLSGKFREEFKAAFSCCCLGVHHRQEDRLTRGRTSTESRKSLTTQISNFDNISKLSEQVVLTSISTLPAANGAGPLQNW
Put plainly: Counterscreen assay for antagonists of the orexin 1 receptor (OX1R; HCRTR1): Fluorescence-based cell-based dose response assay for antagonists of the orexin 2 receptor (OX2R; HCRTR2), run by assay provider.

Assay [12] has as its target T6, Orexin receptor type 2. Put plainly: Counterscreen assay for antagonists of the orexin 1 receptor (OX1R; HCRTR1): Homogeneous Time Resolved Fluorescence (HTRF)-based cell-based dose response assay for antagonists of the orexin 2 receptor (OX2R; HCRTR2), run by assay provider. (Counterscreens check selectivity or assay interference.)

The term IC50 denotes the concentration that gives 50% inhibition. As for `Fc1ccc(COc2ccc(C(=S)N3CCCC3)cc2)cc1`, the half-inhibitory concentration (IC50) on Caspase-3 [1] was 7.14 µM (active); in [2], 5.33 µM (active); in assay [3] it was 8.99 µM (active); in assay [4], 2.46 µM (active); on Caspase-3 [5], 1.31 µM (active); in assay [6], 1.68 µM (active). Further, the IC50 in [7] was 2.16 µM (active).
Regarding `O=C(N/N=C/c1c(Cl)[nH]c2ccccc12)c1sc2ccccc2c1Cl`, the IC50 in the assay on CHO-K1 was > 66.2 µM (inactive); in [8] it was > 49.7 µM (inactive); in assay [9] it was 2.14 µM (active); in assay [10], 3.23 µM (active); on Orexin receptor type 2 [11] it was > 88.8 µM (inactive); on Orexin receptor type 2 [12], 6.88 µM (active).
Regarding `Cc1c(C(=O)Nc2ccc(N3CCOCC3)cc2)oc2ccccc12`, the IC50 in the assay with CHO-K1 is > 66.2 µM (inactive); in [8] it was > 49.8 µM (inactive); in assay [9], 0.277 µM (active); in assay [10] it was 1.46 µM (active); on Orexin receptor type 2 [11], > 88.8 µM (inactive); at Orexin receptor type 2 [12], > 50 µM (inactive).
